In patent publication US6642224B1, “Diazepan derivatives or salts thereof” (Yamanouchi Pharmaceutical Co., Ltd., priority 2000, dated 2003):

How the values were obtained:
human factor Xa = molecular target: T1, human factor Xa (Homo sapiens, UniProt P00742); assay: Test on measurement of coagulation time by human activated blood coagulation factor X; type: biochemical; conditions: human blood plasma; concentration by which the coagulation time is prolonged 2-fold
T1 construct: purchased Enzyme Research Labs
Protocol: 1) Test on Measurement of Coagulation Time by Human Activated Blood Coagulation Factor X
To 90 μl of human blood plasma were added 10 μl of a drug or a physiological saline and 50 μl of human factor Xa (Enzyme Research Labs), incubation was carried out at 37° C. for 3 minutes, 100 μl of 20 mM CaCl2 previously warmed at 37° C. were added and the time until coagulation was measured by a coagulo-meter (KC10 of Amelung). With regard to the human blood plasma, each 45 ml of blood were collected from vein of elbow of six healthy persons using a syringe in which 5 ml of 3.8% sodium citrate were contained and centrifuged at 4° C. for 15 minutes at 3,000 rpm and the separated blood plasma was pooled and frozen, then thawed before use. With regard to the human factor Xa, the concentration by which the coagulation time when a physiological saline (control) was added was about 30 to 40 seconds was selected. A CT2 value (concentration by which the coagulation time is prolonged to an extent of 2-fold) was determined by plotting the drug concentrations and relative value (fold) of the coagulation time to the control, followed by subjecting to linear regression.

bovine thrombin = molecular target: T2, bovine thrombin (Bos taurus, UniProt P00735); assay: Test on measurement of coagulation time by bovine thrombin; type: biochemical; conditions: human blood plasma; concentration by which the coagulation time is prolonged 2-fold
T2 construct: 500 units of Thrombin (derived from bovine; Mochida Pharmaceutical); purchased Mochida Pharmaceutical
Protocol: 2) Test on Measurement of Coagulation Time by Bovine Thrombin
To 50 μl of human blood plasma was added 50 μl of a drug or a physiological saline, incubation was carried out at 37° C. for 3 minutes, 50 μl of thrombin (500 units of Thrombin (derived from bovine; Mochida Pharmaceutical) previously warmed at 37° C. was added and the time until coagulation was measured by a coagulo-meter (KC10 of Amelung). With regard to the human blood plasma, each 45 ml of blood was collected from vein of elbow of six healthy persons using a syringe in which 5 ml of 3.8% sodium citrate was contained and centrifuged at 4° C. for 15 minutes at 3,000 rpm and the separated blood plasma was pooled and frozen, then thawed before use. With regard to the thrombin, the concentration by which the coagulation time when a physiological saline (control) was added was about 20 seconds was selected. A CT2 value (concentration by which the coagulation time is prolonged to an extent of 2-fold) was determined by plotting the drug concentrations and relative value (fold) of the coagulation time to the control, followed by subjecting to linear regression.

[1] = Test on ex vivo measurement of coagulation time in mice (oral administration); conditions: male ICR mouse, po 100 mg/kg, as compared with control (plasma without administration of a drug)
Protocol: 4) Test on ex vivo Measurement of Coagulation Time in Mice (Oral Administration)
Using the resulting blood plasma, extrinsic coagulation time (PT) and intrinsic coagulation time (APTT) were measured in accordance with the following methods a) and b).
(§1) a) Extrinsic Coagulation Time (PT)
(§2) Ortho Brain Thromboplastin (54 mg/vial; a freeze-dried preparation; Ortho-Clinical Diagnostics) was dissolved in 2.5 ml of Milli-Q water and preliminarily warmed at 37° C. The above-separated blood plasma (50 μl) was warmed at 37° C. for 1 minute, 50 μl of the above-mentioned thromboplastin solution was added and the coagulation time was measured. Amelung KC10A was used for the measurement of the coagulation time.
(§3) b) Intrinsic Coagulation Time (APTT)
(§4) To 50 μl of the above blood plasma was added 50 μl of Hemoliance Thrombosil I (DIA-IATRON), the mixture was warmed at 37° C. for 3 minutes, 50 μl of a 20 mM CaCl2 solution previously warmed at 37° C. were added and the coagulation time was measured. KC10A manufactured by Amelung was used for the measurement of the coagulation time.
Dose dependency of and time-course changes in the anticoagulation action were also examined by changing the administration dose or the blood collection time.

[2] = Test on ex vivo measurement of coagulation time in cynomolgus monkeys (oral administration); conditions: male cynomolgus monkeys, po 10 mg/kg, as compared with control (plasma without administration of a drug)
Protocol: as §1, §2, §3, §4
5) Test on ex vivo Measurement of Coagulation Time in Cynomolgus Monkeys (Oral Administration) […]

T1 sequence (P00742 235-488 limits assumed): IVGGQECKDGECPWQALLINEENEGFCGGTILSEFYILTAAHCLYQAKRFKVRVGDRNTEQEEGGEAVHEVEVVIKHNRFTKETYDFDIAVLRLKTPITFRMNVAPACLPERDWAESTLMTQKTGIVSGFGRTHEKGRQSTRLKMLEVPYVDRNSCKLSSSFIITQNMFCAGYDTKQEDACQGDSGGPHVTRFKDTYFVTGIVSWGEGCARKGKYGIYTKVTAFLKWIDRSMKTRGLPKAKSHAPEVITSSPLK
T1 sequence (P00742 41-179 partner limits assumed): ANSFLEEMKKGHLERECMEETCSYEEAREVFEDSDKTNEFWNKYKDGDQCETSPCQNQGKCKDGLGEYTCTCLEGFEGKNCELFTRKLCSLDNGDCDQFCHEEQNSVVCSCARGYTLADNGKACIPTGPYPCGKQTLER

Compound	Test on measurement of coagulation time by human activated blood coagulation factor X (CT2) (human factor Xa)	Test on measurement of coagulation time by bovine thrombin (CT2) (bovine thrombin)	prolongation of extrinsic coagulation time (PT) [1]	prolongation of intrinsic coagulation time (APTT) [1]	prolongation of extrinsic coagulation time (PT) [2]	prolongation of intrinsic coagulation time (APTT) [2]
COc1ccc(C(=O)Nc2ccccc2NC(=O)c2ccc(C3CCNCC3)cc2)cc1 [Control 1, reference compound]	17.0 µM	>100 µM	–	–	–	–
COc1ccc(C(=O)Nc2ccc(O)cc2NC(=O)c2ccc(N(C)C)cc2)cc1 [Control 2, reference compound]	11.3 µM	–	–	–	–	–
CN1CCCN(c2ccc(C(=O)Nc3cc(C(=O)O)ccc3COc3cccc(C(=N)N)c3)cc2)CC1.Cl [Example 3]	–	–	twice or more	twice or more	twice or more	twice or more
CN1CCCN(c2ccc(C(=O)Nc3cc(C(=O)O)ccc3CCc3cccc(C(=N)N)c3)cc2)CC1.Cl [Example 5]	0.10 µM	>100 µM	–	–	–	–
COc1ccc(NC(=O)c2cccc(O)c2NC(=O)c2ccc(N3CCCN(C)CC3)cc2)cc1.Cl [Example 9, 3-hydroxy-4′-methoxy-2-{[4-(4-methyl-1,4-diazapan-1-yl)benzoyl]amino}benzanilide hydrochloride]	1.71 µM	>100 µM	–	–	–	–
CN1CCCN(c2ccc(C(=O)Nc3c(O)cccc3C(=O)Nc3ccc(F)cc3)cc2)CC1.Cl [Example 11]	1.33 µM	>100 µM	–	–	–	–
COc1ccc(C(=O)Nc2cccc(O)c2NC(=O)c2ccc(N3CCCN(c4ccncc4)CC3)cc2)cc1.Cl [Example 32]	1.41 µM	>100 µM	–	–	–	–
COc1ccc(C(=O)Nc2cccc(OCCO)c2NC(=O)c2ccc(N3CCCN(C)CC3)cc2)cc1.Cl [Example 39, 3-(2-hydroxyethoxy)-N^1-(4-methoxybenzoyl)-N^2-[4-(4-methyl-1,4-diazepan-1-yl)benzoyl]-1,2-phenylenediamine hydrochloride]	1.53 µM	>100 µM	–	–	–	–
